Source: patent publication EP4722213A1, “NITROGEN-CONTAINING FUNCTIONAL GROUP-SUBSTITUTED PYRIDAZINOPYRIDONE DERIVATIVE AND USE THEREOF” (Sichuan Huiyu Pharmaceutical Co., Ltd., priority 2023, dated 2024)
Where a name gives a salt, the structure may show the parent alone.

Assays:
[1] = test system: NCI-H358 non-small cell lung cancer cells; assay: Inhibition of NCI-H358 cell proliferation (CellTiter-Glo 3D, 7 days); type: cell-based; conditions: Homo sapiens, NCI-H358, 168 h, 3D microspheres, read-out: Inhibitory activity against NCI-H358 cell proliferation (IC50)
Method: The number of viable cells were detected by CellTiter-Glo 3D® reagent, thereby evaluating the inhibitory effect of compounds on cell proliferation. NCI-H358 non-small cell lung cancer cells (Nanjing cobioer) in the exponential growth phase were digested with trypsin-EDTA, and seeded into 96-well ultra-low attachment microplates at 100 µL per well with a density of 2000 cells/well. The cells were cultured overnight at 37°C with 5% CO2 to form microspheres. The test compounds were serially diluted 5-fold with DMSO to obtain 8 concentration gradient dilutions, then diluted with RPMI-1640 (10% FBS) cell culture medium respectively to obtain compound working solutions (2×). 100 µL per well was added to the cell supernatant, and the culture was continued for 7 days under the conditions of 37°C and 5% CO2. The well plate was removed, and 100 µL of CellTiter-Glo 3D® reagent was added. After lysis at room temperature for 10-30 minutes, 70 µL of the lysate was aspirated and transferred to a white opaque 384-well plate.
The inhibition rate was calculated by the following formula: [formula] Note: The negative control refers to the group without inhibitor, and the blank refers to the group without cells.
The inhibitory activities of some Example compounds and comparative compounds against NCI-H358 cell proliferation are shown in Table 2. Table 2. Inhibitory activity of some Example compounds against NCI-H358 cell proliferation

SOS1 = target: T1, SOS1 (Homo sapiens, UniProt Q07889); assay: biochemical
T1 sequence (Q07889 1-1333): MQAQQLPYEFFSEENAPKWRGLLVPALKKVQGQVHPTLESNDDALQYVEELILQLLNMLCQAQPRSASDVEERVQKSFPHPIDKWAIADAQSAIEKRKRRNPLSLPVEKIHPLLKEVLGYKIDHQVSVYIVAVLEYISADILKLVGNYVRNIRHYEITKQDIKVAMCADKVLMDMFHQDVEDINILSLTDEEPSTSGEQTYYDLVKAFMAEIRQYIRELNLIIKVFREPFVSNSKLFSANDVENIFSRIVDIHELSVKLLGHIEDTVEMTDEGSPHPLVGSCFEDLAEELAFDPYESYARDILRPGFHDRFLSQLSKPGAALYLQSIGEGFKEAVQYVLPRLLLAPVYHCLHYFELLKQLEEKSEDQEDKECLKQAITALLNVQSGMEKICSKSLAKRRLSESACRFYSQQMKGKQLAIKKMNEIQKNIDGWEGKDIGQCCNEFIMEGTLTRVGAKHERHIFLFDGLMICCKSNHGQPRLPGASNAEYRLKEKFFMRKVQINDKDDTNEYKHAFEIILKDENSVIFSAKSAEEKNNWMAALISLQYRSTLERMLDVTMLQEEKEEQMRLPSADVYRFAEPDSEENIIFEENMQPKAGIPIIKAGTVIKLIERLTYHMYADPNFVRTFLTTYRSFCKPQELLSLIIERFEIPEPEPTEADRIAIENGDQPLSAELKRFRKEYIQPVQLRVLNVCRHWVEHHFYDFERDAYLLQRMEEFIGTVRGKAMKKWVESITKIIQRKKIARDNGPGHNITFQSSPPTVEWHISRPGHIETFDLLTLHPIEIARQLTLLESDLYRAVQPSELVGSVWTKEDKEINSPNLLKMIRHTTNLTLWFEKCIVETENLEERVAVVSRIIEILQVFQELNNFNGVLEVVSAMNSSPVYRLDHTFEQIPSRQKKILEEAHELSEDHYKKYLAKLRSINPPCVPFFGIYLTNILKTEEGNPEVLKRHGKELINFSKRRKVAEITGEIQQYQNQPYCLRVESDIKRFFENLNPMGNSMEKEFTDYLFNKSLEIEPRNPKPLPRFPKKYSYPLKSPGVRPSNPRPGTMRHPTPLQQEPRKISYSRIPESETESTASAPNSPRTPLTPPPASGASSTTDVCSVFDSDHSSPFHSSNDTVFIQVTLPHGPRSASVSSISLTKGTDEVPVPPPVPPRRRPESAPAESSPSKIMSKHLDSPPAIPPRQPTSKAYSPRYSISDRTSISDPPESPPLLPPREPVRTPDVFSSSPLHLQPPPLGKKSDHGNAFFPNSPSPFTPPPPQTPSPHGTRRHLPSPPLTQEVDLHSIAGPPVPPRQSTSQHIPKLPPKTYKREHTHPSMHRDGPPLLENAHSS

[2] = Rat liver microsomal metabolic stability; type: in vitro ADME; conditions: rat liver microsomes; for half-life at 1 µM: NADPH, 37°C; for CLint scaled at 1 µM: calculated from T1/2, fu defaulted to 1, read-out: CL(liver)
Excerpt: Metabolic stability affects the clearance rate, half-life, and oral bioavailability of compounds in the body, and is one of the most important ADME drug-like properties of compounds. Hepatocyte microsomal stability assay is a commonly used method for studying metabolic stability. In the present disclosure, rat liver microsomes are used to determine and investigate the metabolic stability of compounds.
Preparation of compound stock solution: an appropriate amount of the test compound and testosterone was taken, and a 1 mM stock solution was prepared with DMSO, which was stored in a refrigerator at 4°C.
Preparation of compound working solution: The 1 mM compound stock solution was taken respectively, and then diluted to 100 µM with acetonitrile-water (v:v = 1:1) to obtain the working solution.
Preparation of NADPH working solution: an appropriate amount of NADPH was weighed and dissolved in 16 mM MgCl2 to prepare a NADPH working solution with a concentration of 4.0 mM.
Preparation of rat liver microsome working solution: an appropriate amount of rat liver microsomes was taken and diluted with PBS to obtain a liver microsome working solution with a concentration of 1 mg/mL.
In the incubation system, 48 µL of PBS, 100 µL of rat liver microsome working solution, and 2 µL of the test compound working solution were sequentially added and mixed well. After pre-incubation at 37°C for 5 min, 50 µL of NADPH was added to initiate the reaction. After incubation for the corresponding time points, an appropriate amount of ice-cold acetonitrile containing an internal standard was added to terminate the reaction. The mixture was vortexed to mix well, centrifuged, and the supernatant was collected. The supernatant was injected into LC-MS/MS for detection of the residual metabolic amount of the compound.
Softwares of Excel, etc. were used for data processing according to the following formula. Ct = C0 •e^(−ke •t) [formula] when Ct = (1)/(2)C0 [formula] , T1/2 = (Ln2)/(ke) = (0.693)/(ke) [formula] CLint(mic) = (0.693)/(In vitro T1/2)•(1)/(mg/mL microsomal protein in reaction system) [formula] CLint(liver) = CLint(mic) •(mg microsomes)/(g liver)•(g liver)/(kg body weight) [formula] CL(liver) = (CLint(liver)×fu×Qh)/(CLint(liver)×fu+Qh) [formula] fu (unbound fraction in blood) was defaulted to be 1.

| Structure (SMILES) | IC50 [1] [nM] | IC50 (SOS1) [nM] | half-life at 1 µM [2] [min] | CLint scaled at 1 µM [2] [mL/min/kg] |
| --- | --- | --- | --- | --- |
| Cc1c([C@@H](C)Nc2nnc(N3CCCC3)c3cc(=O)n(C4(C)CC4)cc23)cccc1C(F)(F)F [Example 61, (R)-4-((1-(2-methyl-3-(trifluoromethyl)phenyl)ethyl)amino)-6-(1-methylcyclopropyl)-1-(pyrrolidin-1-yl)pyrido[3,4-d]pyridazin-7(6H)-one] | 31.8 | 6.1 |  |  |
| C[C@@H](Nc1nnc(N2CCN(C)CC2)c2cc(=O)n(C3CC3)cc12)c1cccc(S(F)(F)(F)(F)F)c1 [Example 89, (R)-6-cyclopropyl-1-(4-methylpiperazin-1-yl)-4-((1-(3-(pentafluoro-λ^6-sulfaneyl)phenyl)ethyl)amino)pyrido[3,4-d]pyridazin-7(6H)-one] | 58.6 | 4.1 |  |  |
| Cc1c([C@@H](C)Nc2nnc(C)c3cc(=O)n(C4(C)CC4)cc23)cccc1C(F)(F)F [comparative compound 1, (R)-1-methyl-4-((1-(2-methyl-3-(trifluoromethyl)phenyl)ethyl)amino)-6-(1-methylcyclopropyl) pyrido[3,4-d]pyridazin-7(6H)-one, reference compound] | 282 |  |  |  |
| C[C@@H](Nc1nnc(N2CC3(CCC3)C2)c2cc(=O)n(C3(C)CC3)cc12)c1cccc(C(F)F)c1F [Example 191, (R)-4-((1-(3-(difluoromethyl)-2-fluorophenyl)ethyl)amino)-6-(1-methylcyclopropyl)-1-(2-azaspiro[3.3]heptan-2-yl)pyrido[3,4-d]pyridazin-7(6H)-one] | 39.3 | 4.5 |  |  |
| C[C@@H](Nc1nnc(N2CCN(CCO)CC2)c2cc(=O)n(C3(C)CC3)cc12)c1cccc(C(F)F)c1F [Example 194, (R)-4-((1-(3-(difluoromethyl)-2-fluorophenyl)ethyl)amino)-1-(4-(2-hydroxyethyl)piperazin-1-yl)-6-(1-methylcyclopropyl) pyrido[3,4-d]pyridazin-7(6H)-one] | 44.9 | 3.9 |  |  |
| C[C@@H](Nc1nnc(N2CCN3CCCC3C2)c2cc(=O)n(C3(C)CC3)cc12)c1cccc(C(F)F)c1F (stereo partly drawn) [Example 192, 4-(((R)-1-(3-(difluoromethyl)-2-fluorophenyl)ethyl)amino)-1-(hexahydropyrrolo[1,2-a]pyrazin-2(1H)-yl)-6-(1-methylcyclopropyl) pyrido[3,4-d]pyridazin-7(6H)-one] | 28.8 | 3.8 |  |  |
| CCN1CCN(c2nnc(N[C@H](C)c3cccc(C(F)(F)F)c3F)c3cn(C4(C)CC4)c(=O)cc23)CC1 [Example 168, (R)-1-(4-ethylpiperazin-1-yl)-4-((1-(2-fluoro-3-(trifluoromethyl)phenyl)ethyl)amino)-6-(1-methylcyclopropyl) pyrido[3,4-d]pyridazin-7(6H)-one formate] | 35.5 | 4.1 |  |  |
| C[C@@H](Nc1nnc(N2CCC2)c2cc(=O)n(C3CC3)cc12)c1cccc(C(F)F)c1F [Example 15, (R)-1-(azetidin-1-yl)-6-cyclopropyl-4-((1-(3-(difluoromethyl)-2-fluorophenyl)ethyl)amino)pyrido[3,4-d]pyridazin-7(6H)-one] |  | 5.5 | 47.2 | 27 |
| Cc1nnc(N[C@H](C)c2cccc(C(F)(F)F)c2)c2cn(C3(C)CC3)c(=O)cc12 [comparative compound2, (R)-1-methyl-6-(1-methylcyclopropyl)-4-((1-(3-(trifluoromethyl)phenyl)ethyl)amino)pyrido[3,4-d]pyridazin-7(6H)-one hydrochloride, reference compound] | 377 |  |  |  |
| CNc1nnc(N[C@H](C)c2cccc(C#N)c2C)c2cn(C3CC3)c(=O)cc12 [Example 38, (R)-3-(1-((6-cyclopropyl-1-(methylamino)-7-oxo-6,7-dihydropyrido[3,4-d]pyridazin-4-yl)amino)ethyl)-2-methylbenzonitrile] |  | 5 | 213 | 9.7 |
| CC(C)C1CCN(c2nnc(N[C@H](C)c3cccc(C(F)F)c3F)c3cn(C4(C)CC4)c(=O)cc23)CC1 [Example 121, (R)-4-((1-(3-(difluoromethyl)-2-fluorophenyl)ethyl)amino)-1-(4-isopropylpiperidin-1-yl)-6-(1-methylcyclopropyl) pyrido[3,4-d]pyridazin-7(6H)-one] |  | 5.5 | > 300 | < 7.23 |
| C[C@@H](Nc1nnc(NC2(C)CC2)c2cc(=O)n(C3(C)CC3)cc12)c1cccc(C(F)F)c1F [Example 11, (R)-4-((1-(3-(difluoromethyl)-2-fluorophenyl)ethyl)amino)-6-(1-methylcyclopropyl)-1-((1-methylcyclopropyl)amino)pyrido[3,4-d]pyridazin-7(6H)-one] |  | 1.4 | 51.3 | 25.8 |
| C[C@@H](Nc1nnc(N2CCNCC2)c2cc(=O)n(C3(C)CC3)cc12)c1cccc(C(F)F)c1F [Example 78, (R)-4-((1-(3-(difluoromethyl)-2-fluorophenyl)ethyl)amino)-6-(1-methylcyclopropyl)-1-(piperazin-1-yl)pyrido[3,4-d]pyridazin-7(6H)-one] |  | 4.6 | 253 | 8.4 |
| C[C@@H](Nc1nnc(NC2CC2)c2cc(=O)n(C3(C)CC3)cc12)c1cccc(C(F)F)c1F [Example 10, (R)-1-(cyclopropylamino) -4-((1-(3-(difluoromethyl)-2-fluorophenyl)ethyl)amino)-6-(1-methylcyclopropyl) pyrido[3,4-d]pyridazin-7(6H)-one] |  | 5.8 | 29 | 33.6 |
